One compound from US20060270643A1, “Hyfroxyflutamide induced pathways related to androgen receptor negative prostate cancer cells” (priority 2002, published 2006) can be followed below.

Molecules are shown by their SMILES. “Also recorded” adds a separate entry of the source.

Assay [1] deals with MAP kinase in CWR22 cells. Kind of assay: Immunoblot of phospho-ERK1/2 in CWR22 cells. The class given is cell-based, human. The note with it: 15 mins. Background: A western blot detects proteins with antibodies after separation by electrophoresis.
Assay [2] concerns MAP kinase in LNCaP cells. The assay is described as follows: Immunoblot of phospho-ERK1/2 in LNCaP cells. The class given is cell-based, human. The note with it: LNCaP cells (data not shown).
For the next assay, the target named is T1, AR (Homo sapiens, UniProt P10275).
T1 sequence (P10275 1-920): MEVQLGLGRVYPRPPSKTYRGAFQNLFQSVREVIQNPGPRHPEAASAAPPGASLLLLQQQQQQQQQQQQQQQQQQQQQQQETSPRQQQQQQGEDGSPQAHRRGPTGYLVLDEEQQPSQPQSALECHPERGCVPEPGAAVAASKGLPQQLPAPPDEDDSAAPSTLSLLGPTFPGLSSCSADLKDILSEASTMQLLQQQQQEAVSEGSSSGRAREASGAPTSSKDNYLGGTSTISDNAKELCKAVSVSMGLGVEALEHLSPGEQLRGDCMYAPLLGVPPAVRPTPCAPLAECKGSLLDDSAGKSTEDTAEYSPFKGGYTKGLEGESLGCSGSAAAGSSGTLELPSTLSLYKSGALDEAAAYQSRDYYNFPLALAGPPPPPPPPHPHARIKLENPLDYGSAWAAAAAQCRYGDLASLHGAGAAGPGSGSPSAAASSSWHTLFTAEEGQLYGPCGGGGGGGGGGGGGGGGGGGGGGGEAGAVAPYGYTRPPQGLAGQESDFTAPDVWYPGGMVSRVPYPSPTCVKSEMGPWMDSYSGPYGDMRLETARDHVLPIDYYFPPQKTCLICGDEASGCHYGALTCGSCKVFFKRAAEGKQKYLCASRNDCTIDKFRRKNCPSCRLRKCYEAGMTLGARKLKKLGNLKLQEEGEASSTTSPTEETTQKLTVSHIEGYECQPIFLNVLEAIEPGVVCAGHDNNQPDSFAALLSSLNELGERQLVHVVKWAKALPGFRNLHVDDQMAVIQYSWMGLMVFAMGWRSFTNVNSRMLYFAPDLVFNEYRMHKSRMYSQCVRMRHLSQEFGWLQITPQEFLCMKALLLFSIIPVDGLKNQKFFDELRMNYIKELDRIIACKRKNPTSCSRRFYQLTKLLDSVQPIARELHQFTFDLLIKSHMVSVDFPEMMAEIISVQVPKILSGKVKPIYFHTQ
Kind of assay: AR/DHT mediated PSA transcriptional activity (luciferase reporter) in DU145 cells. The note with it: 1 μM of HF, 1 nM DHT, DU145 cells cotransfected with AR. Type of assay: cell-based. (In general: Reporter assays use an easily measured gene product as a stand-in for the process of interest.)

A further assay has as its target T2, EGFR (Homo sapiens, UniProt P00533).
T2 construct: endogenous in cells; host or cells: DU145
Kind of assay: EGFR immunoprecipitation and anti-phosphotyrosine immunoblot in DU145 cells. The class given is cell-based. The settings on record: 1 μM HF, 20 min. As to the method: 9. […] After 15 min treatment, cells were lysed and immunoblotted with anti-phospho ERK1/2 and antiERK1/2 antibodies. […] EGFR was immunoprecipitated from the cell lysates, and their phosphotyrosine level was determined by anti-phosphotyrosine antibody. All the results were visualized using enhanced chemiluminescence.

Another assay has as its system DU145 cells. Kind of assay: Cell proliferation assay (hemacytometer counting). The class given is cell-based, human. As to the method: 10. […] (A) DU145 cells were seeded in 10% FBS DMEM medium and 24 hours later cells were changed to serum free medium. 48 hours later changed the medium to 0.5% FBS medium and treated with ethanol, HF, or EGF. Every 24 hours, the cells were counted by hemacytometer. […]. […] (B) DU145 cells were seeded and transfected with anti-sense oligonucleotide of Ras (IRIS 2503: 5′-[…]-3′), Raf (IIUS: 5132:5′-[…]-3′) and HIV (5′-[…]-3′) (Chen, G., Oh, S., Monia B. P., and Stacey, D. W., J. Biol. Chem., 271: 28259-28265, 1996, Monia, B. P., et al., Proc. Natl. Acad. Sci. USA, 93: 15481-15484, 1996.) by SuperFect (Qiagen). 24 hour after serum starvation, we changed the cells to medium containing 0.5% FBS, and treated the cells as described in A. Cells were counted by hemacytometer every 24 hours. The cell lysate were blotted with anti-H-Ras and Raf antibodies and β-actin was blotted for loading control.
199. DU145 cells were seeded at 2×10^4/ml on 35 mm plates and allowed to attach overnight. Cells were kept in serum-free DMEM medium for 24 hours, and then media were replaced with DMEM-0.5% FBS and treated as indicated. Cells were trypsinized and counted with a hemacytometer at different times after treatments. For the antisense oligonuleotide experiments, cells were incubated with a fixed ratio of oligonucleotide versus SuperFect (2.5 μl of SuperFect per 100 nM oligo) for 4 hours and then the oligo-containing medium was replaced with DMEM-0.5% FBS. Cells were trypsinized and counted by hemacytometer at indicated times.

The subject of a further assay is cyclin D1. The assay is described as follows: Western blot of cyclin D1 and cell cycle related gene products in DU145 cells. The class given is cell-based, human. As to the method: (§1) 11. […] (A) DU145 cells were treated with HF (1 μM), or EGF (10 ng/ml), or ethanol vehicle for 12 hours after the serum starvation. Cells were lysed and blotted with anti-cyclin D1 antibody. (B) DU145 cells were serum starved for 24 hours and then co-transfected DN Ras or DN Raf together with […] Luc reporter with SuperFect (Qiagen). After 4 hours, the medium was changed to normal medium (10% serum) for 18 hours and then changed to serum starvation condition for another 24 hours and then treated with HF, EGF, or ethanol vehicle control. Cells were lysed for luciferase activity analysis.

Assay [3] concerns cyclin D1 promoter (−1745D1-Luc). Kind of assay: Cyclin D1 promoter luciferase reporter assay in DU145 cells. The class given is cell-based, human. The settings on record: 10^−6 M HF or 30 ng/ml EGF. As to the method: as §1
197. DU145 cells were obtained from American Type Culture Collection and cultured in Dubecco's modified Eagles's medium (DMEM) supplemented with 10% fetal bovine serum (FBS). Cells (1×10^5) were seeded in 35 mm plates and transfected with the SuperFect transfection reagent (Qiagen, Chatworth, Calif.). After 4 hours the media were changed to serum-free DMEM media for 24 hours. Thereafter, the cells were treated with HF, EGF, and vehicle for 18 hours and then lysed for luciferase assay. Luciferase activity was normalized for taansfection efficiency using pRL-TK as an internal control. Luciferase assays were performed using dual-luciferase reporter system (Promega, Madison, Wis.).

T2 sequence (P00533 25-1210): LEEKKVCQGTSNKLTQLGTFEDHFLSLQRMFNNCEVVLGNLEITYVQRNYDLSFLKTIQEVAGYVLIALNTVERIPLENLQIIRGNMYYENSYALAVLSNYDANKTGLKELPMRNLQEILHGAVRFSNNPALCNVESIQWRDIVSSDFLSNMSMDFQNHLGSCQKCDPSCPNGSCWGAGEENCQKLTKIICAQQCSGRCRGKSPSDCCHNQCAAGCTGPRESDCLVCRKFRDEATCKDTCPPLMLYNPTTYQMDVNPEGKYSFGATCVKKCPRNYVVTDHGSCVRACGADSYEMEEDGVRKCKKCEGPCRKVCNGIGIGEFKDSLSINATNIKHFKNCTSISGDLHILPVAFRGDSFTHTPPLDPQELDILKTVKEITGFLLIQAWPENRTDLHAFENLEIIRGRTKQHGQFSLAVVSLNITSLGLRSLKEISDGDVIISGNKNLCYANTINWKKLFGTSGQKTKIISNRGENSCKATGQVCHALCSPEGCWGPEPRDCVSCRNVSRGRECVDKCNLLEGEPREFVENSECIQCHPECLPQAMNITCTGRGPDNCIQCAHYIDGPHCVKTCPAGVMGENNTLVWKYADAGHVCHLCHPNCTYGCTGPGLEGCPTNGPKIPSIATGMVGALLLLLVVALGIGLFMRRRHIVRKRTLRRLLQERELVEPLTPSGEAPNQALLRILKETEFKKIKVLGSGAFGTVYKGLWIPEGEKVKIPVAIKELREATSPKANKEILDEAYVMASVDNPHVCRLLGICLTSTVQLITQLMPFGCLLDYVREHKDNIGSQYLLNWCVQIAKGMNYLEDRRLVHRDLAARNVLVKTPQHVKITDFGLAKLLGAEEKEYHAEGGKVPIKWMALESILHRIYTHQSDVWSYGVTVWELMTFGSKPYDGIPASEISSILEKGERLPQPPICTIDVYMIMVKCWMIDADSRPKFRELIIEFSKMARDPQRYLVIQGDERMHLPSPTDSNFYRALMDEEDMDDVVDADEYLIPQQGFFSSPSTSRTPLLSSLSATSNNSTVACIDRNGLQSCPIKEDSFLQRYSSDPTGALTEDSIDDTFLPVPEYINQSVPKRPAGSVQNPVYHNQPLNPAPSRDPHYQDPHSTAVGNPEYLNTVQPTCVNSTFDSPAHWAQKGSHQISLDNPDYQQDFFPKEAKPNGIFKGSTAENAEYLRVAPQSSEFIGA

As for `CC(C)(O)C(=O)Nc1ccc([N+](=O)[O-])c(C(F)(F)F)c1` [HF, hydroxyflutamide], the MAP kinase activation entry in assay [1] is given as “activates MAP kinase”; in assay [2] it was “not”. The “DHT induced PSA-Luc activity” value at AR is reported as “represses DHT induced PSA-Luc activity”. Besides, at EGFR, the “autophosphorylation of EGFR” value is given as “causes the autophosphorylation of EGFR”. Moreover, the results for the cell proliferation result in the assay with DU145 cells (cells maintained in 10% FBS medium (data not shown)) and in the assay with DU145 cells (low serum (0.5% FBS) after serum starvation) were “no significant stimulation of cell proliferation” and “stimulate the DU 145 cell growth significant; also recorded: can promote cell proliferation”, respectively. For the same compound, the “cyclin D1 expression” value with cyclin D1 (HF (1 μM) or EGF (10 ng/ml) for 12 hours after serum starvation) is recorded as “induced”. Also, the “other cell cycle related gene products (p27, p21, Ki67, PCNA)” value in the assay with cyclin D1 (after HF- or EGF-treatment) is “no significant change”. Also, in assay [3], the “induction of cyclin D1 promoter (−1745D1-Luc) activity” value is recorded as “about 2 fold”.
